Measured values: patent publication US7687473B2, “5-amino-4-imidazolecarboxamide riboside and its nucleobase as potentiators of antifolate transport and metabolism” (Health Research, Inc., priority 2005, dated 2010)
Read-outs that look alike come from different tables or passages of the source. One block for each compound: values may come before it.

How the values were obtained:
CCRF-CEM cells [1] = assay: [3H]leucovorin uptake in CCRF-CEM cells; format: cell-based, human
Description: (§1) Quantitation of folate and antifolate uptake. The method is essentially as follows. Briefly, logarithmically growing (3-5×10^5/ml) CCRF-CEM cells were harvested at room temperature by centrifugation at 1000×g for 5 min. After washing with the appropriate medium, cells were suspended at ≈2×10^7 cells/ml for use in transport studies. […] Anion-free MHS contains 250 mM sucrose and 20 mM HEPES, titrated to pH 7.4 with MgO. […] Uptake was measured as a function of time for 30 min (for rate and extent measurements) or over 5 min (studies requiring initial velocities). […] Uptake was terminated by diluting 100 μL samples into 1 ml of iced 0.9% NaCl. […] The supernatant was aspirated. The cell pellet was washed once with 1 ml iced 0.9% NaCl and centrifuged as above. The washed pellet was solubilized in 1 ml of 0.3% Triton X-100 by incubation for 60 min at 37° C. The solubilized pellet was transferred to a scintillation vial, 10 ml of Liquiscint (National Diagnostics, Atlanta, Ga.) was added and radioactivity was quantitated in a Beckman Model LS6500 liquid scintillation counter. Separate samples at the longest incubation time used in a particular experiment were harvested for HPLC analysis of intracellular contents as above, except that after the second wash the pellets were extracted with 1 ml boiling 0.1 M Na-phosphate, pH 5.5. The extract was clarified by centrifugation and the supernatant was filtered through an MPS-1 filter unit (Amicon) prior to HPLC analysis.

CCRF-CEM cells [2] = assay: cells; format: cell-based, human
Description: Inhibition of growth of human cell lines in vitro. Inhibition of growth of CCRF-CEM in continuous and intermittent drug exposures was measured. EC50 values were determined from plots of percent control growth versus the logarithm of drug concentration.
[…]; n=2). […]; n=2). Values presented are average±S.D. for n>2 and average±range for n=2. […] […]; EC50 data may therefore underestimate the biological potency.

[3] = target: T1, reduced folate carrier (RFC) (Homo sapiens, UniProt P41440); assay: Inhibition of initial velocity of [3H]MTX influx by competitors; format: cell-based; conditions: IC50, inhibition of initial velocity of [3H]MTX influx
T1 construct: endogenous in cells; host or cells: CCRF-CEM (parental)
T1 sequence (P41440 1-591): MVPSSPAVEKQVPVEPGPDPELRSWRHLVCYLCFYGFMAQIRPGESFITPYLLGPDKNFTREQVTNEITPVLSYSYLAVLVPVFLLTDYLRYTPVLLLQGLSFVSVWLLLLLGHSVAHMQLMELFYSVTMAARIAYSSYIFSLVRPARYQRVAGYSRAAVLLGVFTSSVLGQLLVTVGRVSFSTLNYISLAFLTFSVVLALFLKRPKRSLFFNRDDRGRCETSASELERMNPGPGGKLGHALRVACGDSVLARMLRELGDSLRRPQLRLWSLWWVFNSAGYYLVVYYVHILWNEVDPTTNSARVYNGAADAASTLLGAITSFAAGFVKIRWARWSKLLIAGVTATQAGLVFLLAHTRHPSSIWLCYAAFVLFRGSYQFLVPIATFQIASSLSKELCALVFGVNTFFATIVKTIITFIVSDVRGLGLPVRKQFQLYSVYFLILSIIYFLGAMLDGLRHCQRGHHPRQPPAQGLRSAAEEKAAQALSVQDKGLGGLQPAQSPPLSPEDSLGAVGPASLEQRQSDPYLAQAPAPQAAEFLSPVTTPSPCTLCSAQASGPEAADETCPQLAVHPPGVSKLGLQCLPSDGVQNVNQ
Description: Duplicate samples were removed at 5 min and processed as described above.
(§2) Inhibition of the vi of uptake was measured after pre-incubation of CCRF-CEM cells either with TMTX alone (measuring inhibition at the RFC) or with TMTX+Z (measuring inhibition during Z potentiation). […] All studies were carried out in standard transport medium. Inhibitory potency was measured in two series of experiments and AMT was included in each series as an internal control. Values are average±range of two determinations. […] Values are average±range for duplicate determinations.

CCRF-CEM cells [4] = assay: [3H]MTX uptake (initial velocity and 30 min accumulation) in CCRF-CEM cells; format: cell-based, human; conditions: 10 min preincubation with 2 μM TMTX, no Z
Description: as §1

CCRF-CEM cells [5] = assay: Subcellular localization of [3H]MTX; format: cell-based, human; conditions: 30 min uptake of 2 μM [3H]MTX; 2 μM TMTX, 500 μM Z
Description: Subcellular fractionation. […] Cells were diluted 9-fold in iced 0.9% NaCl, centrifuged at 1000×g for 5 min and washed once with 40 ml iced saline. All subsequent steps were performed at 4°. Cells were homogenized as previously described, except that hypotonic buffer at 20-fold the packed cell volume was used, and the homogenate was centrifuged for 6 min at 1000×g to yield a nuclear pellet (also containing unlysed cells and large debris) and a post-nuclear supernatant (PNS). Based on controls using nonradiolabeled cells, >91% of the cells would be lysed during homogenization. The PNS was centrifuged at 17,000×g to yield a combined mitochondria-lysosome pellet. The resulting supernatant was centrifuged at 100,000×g for 60 min to yield the 100,000×g supernatant (cytosol). The 100,000×g pellet (microsomes) and the combined mitochondria-lysosome pellet were each washed in isotonic buffer and centrifuged at their respective g-forces. All pellets were solubilized in 0.3% Triton X-100 by incubating at 37° for 1 hr; 1 ml was transferred to a scintillation vial for quantitation. Triton X-100 was added to the cytosol to a final concentration of 0.3% and a 1 ml aliquot was quantitated. Radioactivity in each fraction was corrected for a blank containing 0.3% Triton X-100.

[6] = target: T1, reduced folate carrier (RFC); assay: Kinetic constants for influx of [3H]MTX by CCRF-CEM cells; format: cell-based; conditions: influx of [3H]MTX; pre-incubation with solvent (MTX alone), 1 μM TMTX, or 1 μM TMTX + 0.5 mM Z
Description: as §1, §2

[7] = +TMTX + Z, 10 min pre-incubation with 1 μM TMTX and 0.5 mM Z (Z potentiated influx)
[8] = +TMTX, 10 min pre-incubation with 1 μM TMTX alone (inhibition of the RFC)
[9] = 1 μM [3H]LV, 10 min preincubation, 1 μM TMTX, 0.5 mM Z

- EC50 (CCRF-CEM cells [2]; read-out: EC50 for growth inhibition): 600 nM
SMILES: Cc1ccc2nc(N)[nH]c(=O)c2c1Sc1ccncc1 [AG337]
- Effect on potentiation of LV uptake induced by TMTX+Z (CCRF-CEM cells [1]; 20 μM): completely block
- Potentiation of [3H]LV uptake (CCRF-CEM cells [1]; 10 min preincubation at 2 or 20 μM, presence or absence of Z): does not potentiate

- IC50 [3, 7]: 1300 ± 400 nM
- IC50 [3, 8]: 1000 ± 100 nM
SMILES: Cc1nc2ccc3ccc(CNc4ccc5c(c4)CN([C@@H](CCC(=O)O)C(=O)O)C5=O)cc3c2c(=O)[nH]1 [BW1843U89, (S)-2-(5-(((1,2-dihydro-3-methyl-1-oxobenzo(F)quinazolin-9-yl)methyl)-amino)-1-oxo-2-isoindolinyl)glutaric acid]

- IC50 [3, 7]: 2700 nM
- IC50 [3, 8]: 2600 ± 100 nM
SMILES: Nc1nc2c(c(=O)[nH]1)N(C=O)[C@H](CNc1ccc(C(=O)N[C@@H](CCC(=O)O)C(=O)O)cc1)CN2 [(6R,S)-LV, [6R,S]-5-formyltetrahydrofolate]

- Relative radioactivity, Microsomes (CCRF-CEM cells [5]): 0.2%
- [3H]MTX/fraction, Microsomes (CCRF-CEM cells [5]): 0.7 pmol
- Kt [6]: 5.3 ± 0.6 µM
- Vmax [6]: 7.2 ± 0.6 pmol/min/10^7 cells
- Vmax/Kt [6]: 1.36
SMILES: COc1cc(NCc2ccc3nc(N)nc(N)c3c2C)cc(OC)c1OC [TMTX, trimetrexate]
- Extent of [3H]MTX accumulation at 30 min relative to absence of TMTX (CCRF-CEM cells [4]): 90-100%
- Increase in 30 min accumulation (extent) of [3H]LV (CCRF-CEM cells [1]; [9]): 1.6 fold
- Increase in vi of [3H]LV uptake (CCRF-CEM cells [1]; [9]): 1.4 fold
- Relative radioactivity, Cytosol (CCRF-CEM cells [5]): 88.9%
- Relative radioactivity, Mito-Lysosomes (CCRF-CEM cells [5]): 0.4%
- Relative radioactivity, Nuclear Pellet (CCRF-CEM cells [5]): 10.5%
- Total [3H]MTX recovered in all four fractions (CCRF-CEM cells [5]): 338.4 pmol
- [3H]MTX/fraction, Cytosol (CCRF-CEM cells [5]): 300.3 pmol
- [3H]MTX/fraction, Mito-Lysosomes (CCRF-CEM cells [5]): 1.3 pmol
- [3H]MTX/fraction, Nuclear Pellet (CCRF-CEM cells [5]): 35.5 pmol

- EC50 (CCRF-CEM cells [2]; Homo sapiens, CCRF-CEM, 0-6 hr pulse exposure out of 120 hr, 50 μM Z, read-out: EC50): 320 ± 30 nM
- EC50 (CCRF-CEM cells [2]; Homo sapiens, CCRF-CEM, 0-6 hr pulse exposure out of 120 hr, absence of Z, read-out: EC50): 300 ± 10 nM
- EC50 (CCRF-CEM cells [2]; Homo sapiens, CCRF-CEM, 0-16 hr pulse exposure out of 120 hr, 50 μM Z, read-out: EC50): 102 ± 17.5 nM
- EC50 (CCRF-CEM cells [2]; Homo sapiens, CCRF-CEM, 0-16 hr pulse exposure out of 120 hr, absence of Z, read-out: EC50): 85.5 ± 6.5 nM
- EC50 (CCRF-CEM cells [2]; Homo sapiens, CCRF-CEM, 120 h, 120 hr continuous exposure, 50 μM Z, read-out: EC50): 19.8 ± 3.3 nM
- EC50 (CCRF-CEM cells [2]; Homo sapiens, CCRF-CEM, 120 h, 120 hr continuous exposure, absence of Z, read-out: EC50): 18.3 ± 3.4 nM
SMILES: Nc1nc2[nH]cc(CCc3ccc(C(=O)N[C@@H](CCC(=O)O)C(=O)O)cc3)c2c(=O)[nH]1 [pemetrexed]
